Reference: US9751854B2 (Millennium Pharmaceuticals, Inc., priority 2014, dated 2017)

These compounds were tested against human VPS34 (Homo sapiens (Human), UniProt Q8NEB9) (assay: Human VPS34 enzyme assay (Adapta TR-FRET ADP detection)). Conditions: not given.
Assay type: biochemical
Design: Percent Inhibition: dose or concentration left out as unconfirmed

Chain of human VPS34 (Q8NEB9 whole entry): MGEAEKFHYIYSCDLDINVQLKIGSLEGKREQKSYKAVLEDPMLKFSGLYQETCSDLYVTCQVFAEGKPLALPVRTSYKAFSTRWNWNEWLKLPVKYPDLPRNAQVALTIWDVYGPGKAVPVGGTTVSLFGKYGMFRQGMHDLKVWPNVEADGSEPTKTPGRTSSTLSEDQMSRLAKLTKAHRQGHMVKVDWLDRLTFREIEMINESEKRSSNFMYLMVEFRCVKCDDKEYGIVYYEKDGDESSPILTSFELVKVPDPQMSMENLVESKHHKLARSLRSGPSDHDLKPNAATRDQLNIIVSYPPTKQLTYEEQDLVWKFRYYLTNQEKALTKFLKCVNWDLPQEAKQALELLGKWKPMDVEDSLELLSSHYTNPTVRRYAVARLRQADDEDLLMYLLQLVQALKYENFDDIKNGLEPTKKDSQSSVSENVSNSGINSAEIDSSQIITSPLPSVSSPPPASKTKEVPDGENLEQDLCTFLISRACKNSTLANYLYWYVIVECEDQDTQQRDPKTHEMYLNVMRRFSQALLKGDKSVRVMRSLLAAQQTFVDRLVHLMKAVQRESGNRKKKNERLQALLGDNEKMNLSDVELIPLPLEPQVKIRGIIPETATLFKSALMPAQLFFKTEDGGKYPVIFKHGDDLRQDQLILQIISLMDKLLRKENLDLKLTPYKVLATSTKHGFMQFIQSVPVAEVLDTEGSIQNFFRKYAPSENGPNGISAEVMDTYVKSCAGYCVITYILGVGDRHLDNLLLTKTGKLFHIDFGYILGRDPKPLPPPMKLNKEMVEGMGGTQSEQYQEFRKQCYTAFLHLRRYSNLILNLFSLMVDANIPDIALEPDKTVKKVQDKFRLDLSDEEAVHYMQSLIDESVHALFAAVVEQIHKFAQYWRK

SMILES	Percent Inhibition [%]
CC(=O)Nc1cc(-c2cnc(Cl)c(S(=O)(=O)N[C@H](CO)c3ccccc3)c2)ccn1 [Compound I-330, N-(6-chloro-5-{[(1S)-2-hydroxy-1-phenylethyl]sulfamoyl}-3,4′-bipyridin-2′-yl)acetamide]	>99
CC(=O)Nc1cc(-c2cnc(C)c(NS(=O)(=O)c3cccc(Cl)c3Cl)c2)ccn1 [Compound I-342, N-(5-{[(2,3-dichlorophenyl)sulfonyl]amino}-6-methyl-3,4′-bipyridin-2′-yl)acetamide]	>99

Same assay, conditions: IC50 range class

SMILES	IC50 [nM]
CNC1CN(c2cc(-c3ccnc(NC(C)=O)c3)cnc2C)S(=O)(=O)C1 (stereo not shown) [Compound I-325, N-{6-methyl-5-[4-(methylamino)-1,1-dioxidoisothiazolidin-2-yl]-3,4′-bipyridin-2′-yl}acetamide]	10 to 50
Cc1ncc(-c2ccnc(NC(=O)OCc3ccn(C)n3)c2)cc1NS(=O)(=O)c1ccc(F)cc1F [Compound I-326, (1-methyl-1H-pyrazol-3-yl)methyl (5-{[(2,4-difluorophenyl)sulfonyl]amino}-6-methyl-3,4′-bipyridin-2′-yl)carbamate]	< 10
CC(=O)Nc1cc(-c2cnc(Cl)c(S(=O)(=O)N[C@H](CO)c3ccccc3)c2)ccn1 [Compound I-330, N-(6-chloro-5-{[(1S)-2-hydroxy-1-phenylethyl]sulfamoyl}-3,4′-bipyridin-2′-yl)acetamide]	> 100
COc1ncc(-c2ccnc(NC(C)=O)c2)cc1N(C)C(=O)c1ccc(F)cc1F [Compound I-331, N-(2′-acetamido-6-methoxy-3,4′-bipyridin-5-yl)-2,4-difluoro-N-methylbenzamide]	> 100
CC(=O)Nc1cc(-c2cnc3c(c2)S(=O)(=O)N[C@@H](c2ccccc2)CO3)ccn1 [Compound I-334, (S)-N-[4-(1,1-dioxido-3-phenyl-3,4-dihydro-2H-pyrido[2,3-b][1,4,5]oxathiazepin-8-yl)pyridin-2-yl]acetamide]	> 100
CC(=O)Nc1cc(-c2cnc(Cl)c(NS(=O)(=O)c3ccc(C4CC4)cc3F)c2C)ccn1 [Compound I-335, N-(6-chloro-5-{[(4-cyclopropyl-2-fluorophenyl)sulfonyl]amino}-4-methyl-3,4′-bipyridin-2′-yl)acetamide]	10 to 50
CC(=O)Nc1cc(-c2cnc(C)c(NS(=O)(=O)c3cccc(C)c3F)c2)ccn1 [Compound I-339, N-(5-{[(2-fluoro-3-methylphenyl)sulfonyl]amino}-6-methyl-3,4′-bipyridin-2′-yl)acetamide]	10 to 50
CC(=O)Nc1cc(-c2cnc(C)c(NS(=O)(=O)N3CCCCCC3)c2)ccn1 [Compound I-341]	10 to 50
CC(=O)Nc1cc(-c2cnc(C)c(NS(=O)(=O)c3cccc(Cl)c3Cl)c2)ccn1 [Compound I-342, N-(5-{[(2,3-dichlorophenyl)sulfonyl]amino}-6-methyl-3,4′-bipyridin-2′-yl)acetamide]	< 10
Cc1nccc(Nc2cc(-c3cnc(C)c(C(=O)N(C)c4ccc(F)cc4F)c3)ccn2)n1 [Compound I-346, N-(2,4-difluorophenyl)-N,6-dimethyl-2′-[(2-methylpyrimidin-4-yl)amino]-3,4′-bipyridine-5-carboxamide]	10 to 50
COc1ncc(-c2ccnc(NC(C)=O)c2)cc1NC(=O)c1ccc(F)cc1F [Compound I-347, N-(2′-acetamido-6-methoxy-3,4′-bipyridin-5-yl)-2,4-difluorobenzamide]	> 100
Cc1nccc(Nc2cc(-c3cncc(C(C)OCc4ccccn4)c3)ccn2)n1 (stereo not shown) [Compound I-349, N-(2-methylpyrimidin-4-yl)-5-[1-(pyridin-2-ylmethoxy)ethyl]-3,4′-bipyridin-2′-amine]	10 to 50
CC(=O)Nc1cc(-c2cnc(C)c(N3CCNS3(=O)=O)c2)ccn1 [Compound I-352, N-[5-(1,1-dioxido-1,2,5-thiadiazolidin-2-yl)-6-methyl-3,4′-bipyridin-2′-yl]acetamide]	50 to 100
CC(=O)Nc1cc(-c2cnc(C)c(S(=O)(=O)Nc3ccc(F)cc3F)c2)ccn1 [Compound I-353, N-(5-(N-(2,4-difluorophenyl)sulfamoyl)-6-methyl-[3,4′-bipyridin]-2′-yl)acetamide]	10 to 50
CC(=O)Nc1cc(-c2cnc(Cl)c(NS(=O)(=O)c3c(Cl)cccc3Cl)c2C)ccn1 [Compound I-354, N-(6-chloro-5-{[(2,6-dichlorophenyl)sulfonyl]amino}-4-methyl-3,4′-bipyridin-2′-yl)acetamide]	10 to 50
Cc1c(-c2ccnc(Nc3ccnc(C4CC4)n3)c2)cnc(Cl)c1N [Compound I-355, 6-chloro-N-2-′-(2-cyclopropylpyrimidin-4-yl)-4-methyl-3,4′-bipyridine-2′,5-diamine]	10 to 50
COc1ncc(-c2ccnc(NC(C)=O)c2)cc1S(=O)(=O)Nc1cc(F)ccc1F [Compound I-358, N-{5-[(2,5-difluorophenyl)sulfamoyl]-6-methoxy-3,4′-bipyridin-2′-yl}acetamide]	10 to 50
CC(=O)Nc1cc(-c2cnc(C)c(OS(=O)(=O)N(C)C)c2)ccn1 [Compound I-359, 2′-acetamido-6-methyl-3,4′-bipyridin-5-yl dimethylsulfamate]	10 to 50
CC(=O)Nc1cc(-c2cnc(Cl)c(NS(=O)(=O)c3ccc(C#N)cc3Cl)c2C)ccn1 [Compound I-362, N-(6-chloro-5-{[(2-chloro-4-cyanophenyl)sulfonyl]amino}-4-methyl-3,4′-bipyridin-2′-yl)acetamide]	10 to 50
Cc1nccc(Nc2cc(-c3cnc(C)c(OCc4ccccc4)c3)ccn2)n1 [Compound I-363, 5-(benzyloxy)-6-methyl-N-(2-methylpyrimidin-4-yl)-3,4′-bipyridin-2′-amine]	> 100
Cc1ncc(-c2ccnc(Nc3ccnc(C4CC4)n3)c2)cc1NC(=O)N1CC(F)(F)C1 [Compound I-368, N-(2′-((2-cyclopropylpyrimidin-4-yl)amino)-6-methyl-[3,4′-bipyridin]-5-yl)-3,3-difluoroazetidine-1-carboxamide]	10 to 50
Cc1c(-c2ccnc(Nc3ccnc(C4CC4)n3)c2)cnc(Cl)c1C(=O)O [Compound I-369, 6-chloro-2′-((2-cyclopropylpyrimidin-4-yl)amino)-4-methyl-[3,4′-bipyridine]-5-carboxylic acid]	10 to 50
CCN(CC)S(=O)(=O)c1cc(-c2ccnc(NC(C)=O)c2)cnc1C [Compound I-370, N-[5-(diethylsulfamoyl)-6-methyl-3,4′-bipyridin-2′-yl]acetamide]	10 to 50

More lines, now with the values ahead:

IC50 [nM]	SMILES
10 to 50	COc1ncc(-c2ccnc(NC(C)=O)c2)cc1S(=O)(=O)Nc1cccc(C(F)(F)F)c1 [Compound I-329, N-(6-methoxy-5-{[3-(trifluoromethyl)phenyl]sulfamoyl}-3,4′-bipyridin-2′-yl)acetamide]
10 to 50	COC(=O)Nc1cc(-c2cncc(S(=O)(=O)N3CCOCC3)c2)ccn1 [Compound I-332, methyl [5-(morpholin-4-ylsulfonyl)-3,4′-bipyridin-2′-yl]carbamate]
10 to 50	CC(=O)Nc1cc(-c2cnc(Cl)c(NS(=O)(=O)c3ccc(C(F)(F)F)cc3Cl)c2C)ccn1 [Compound I-333, N-(6-chloro-5-(2-chloro-4-(trifluoromethyl)phenylsulfonamido)-4-methyl-[3,4′-bipyridin]-2′-yl)acetamide]
10 to 50	Cc1nccc(Nc2cc(-c3cncc(C(C)Oc4ccccc4Cl)c3)ccn2)n1 (stereo not shown) [Compound I-336, 5-[1-(2-chlorophenoxy)ethyl]-N-(2-methylpyrimidin-4-yl)-3,4′-bipyridin-2′-amine]
> 100	CC(=O)Nc1cc(-c2cnc(N)c(N3CCCC3=O)c2)ccn1 [Compound I-337, N-[6-amino-5-(2-oxopyrrolidin-1-yl)-3,4′-bipyridin-2′-yl]acetamide]
10 to 50	CC(=O)Nc1cc(-c2cncc(S(=O)(=O)NC3CC3)c2)ccn1 [Compound I-338]
10 to 50	CC(=O)Nc1cc(-c2cc(NS(=O)(=O)c3ccc(F)cc3F)c3ncnn3c2)ccn1 [Compound I-340, N-[4-(8-{[(2,4-difluorophenyl)sulfonyl]amino}[1,2,4]triazolo[1,5-a]pyridin-6-yl)pyridin-2-yl]acetamide]
10 to 50	CC(=O)Nc1cc(-c2cnc(C)c(N3CCCN(C)S3(=O)=O)c2)ccn1 [Compound I-343]
10 to 50	COc1ncc(-c2ccnc(NC(C)=O)c2)cc1S(=O)(=O)Nc1ccc(Cl)cc1Cl [Compound I-344]
10 to 50	CC(=O)Nc1cc(-c2cncc(NS(=O)(=O)N(C)C)c2)ccn1 [Compound I-348, N-{5-[(dimethylsulfamoyl)amino]-3,4′-bipyridin-2′-yl}acetamide]
< 10	CCCCN(CCCC)S(=O)(=O)Nc1cc(-c2ccnc(NC(C)=O)c2)cnc1C [Compound I-350, N-{5-[(dibutylsulfamoyl)amino]-6-methyl-3,4′-bipyridin-2′-yl}acetamide]
< 10	CC(=O)Nc1cc(-c2cnc(C)c(NS(=O)(=O)c3ccc(C#N)cc3F)c2)ccn1 [Compound I-356, N-(5-{[(4-cyano-2-fluorophenyl)sulfonyl]amino}-6-methyl-3,4′-bipyridin-2′-yl)acetamide]
10 to 50	CC(=O)Nc1cc(-c2cnc(C)c(N3CC(NCc4ccccc4)CS3(=O)=O)c2)ccn1 (stereo not shown) [Compound I-357, N-{5-[4-(benzylamino)-1,1-dioxidoisothiazolidin-2-yl]-6-methyl-3,4′-bipyridin-2′-yl}acetamide]
10 to 50	Cc1c(-c2ccnc(Nc3ccnc(C4CC4)n3)c2)cnc(Cl)c1C(=O)N1CCC1 [Compound I-361, azetidin-1-yl(6-chloro-2′-((2-cyclopropylpyrimidin-4-yl)amino)-4-methyl-[3,4′-bipyridin]-5-yl)methanone]
10 to 50	CCOC(=O)Nc1cc(-c2cnc(C)c(NS(=O)(=O)N(C)C)c2)ccn1 [Compound I-364, ethyl {5-[(dimethylsulfamoyl)amino]-6-methyl-3,4′-bipyridin-2′-yl}carbamate]
10 to 50	CC(=O)Nc1cc(-c2cncc(S(=O)(=O)N(C)c3ccccc3)c2)ccn1 [Compound I-365, N-{5-[methyl(phenyl)sulfamoyl]-3,4′-bipyridin-2′-yl}acetamide]
10 to 50	CC(=O)Nc1cc(-c2cnc(Cl)c(S(=O)(=O)NC34CC(C3)C4)c2)ccn1 [Compound I-366, N-[5-(bicyclo[1.1.1]pent-1-ylsulfamoyl)-6-chloro-3,4′-bipyridin-2′-yl]acetamide]
50 to 100	CCNC(=O)Nc1cc(-c2ccnc(Nc3ccnc(C)n3)c2)cnc1C [Compound I-367, 1-ethyl-3-{6-methyl-2′-[(2-methylpyrimidin-4-yl)amino]-3,4′-bipyridin-5-yl}urea]
